Data on 14 molecules can be found in US11707557B2, “Compositions and devices incorporating water-insoluble therapeutic agents and methods of the use thereof” (COOK MEDICAL TECHNOLOGIES LLC, priority 2014, dated 2023).

Data set [1] can be described thus: Drug concentrations obtained using EGCG at 50 mg per ml (microscopic check for particulates). The data set is classed as physicochemical. The conditions noted are these: for Drug Concentration: 1 ml of water; for Particulates present: under a microscope. The method, then: EGCG at 50 mg/ml and drug at approximately 250 micrograms per ml were dissolved in the listed solvent and dried down in a test tube under nitrogen. 1 ml of water was added, followed by vortexing. The solutions were examined for particulate matter under a microscope. If no particulates were present, the process was repeated with a higher drug amount. All the tested drugs remained in solution at the listed concentrations except for nystatin and hesperidin.

Data set [2] is described as follows: Solubility of EGCG and tannic acid in propylene glycol and PEG 300.
Text: EGCG and tannic acid are fairly soluble in alcohol and acetonitrile. […] These solutions become more viscous and paste-like as the percentage of gallate in solution is increased. When non-drug containing pastes were placed in water, the contents of the paste (gallate, PG or PEG), which are all water soluble, dissolved away.
A short description of data set [3]: Release from PLGA microspheres +/- EGCG or tannic acid. The following applies: over a 10 days period. The data set is classed as physicochemical. The method, then: Method: The method involved pipetting a solution of the polymer PLGA (usually 20% w/v) and drug (usually 5% w/w to polymer) and EGCG (e.g. 20% w/w/ to polymer) in dichlomethane (DCM) (5 ml) into 100 ml of 2.5% PVA solution in water stirring at 450 rpm. The suspension was left stirring for 2 hours and the microspheres washed 4 times in distilled water. The microspheres were then dried under vacuum for 2 days. Drug encapsulation was measured by dissolving a known weight of microspheres in 1 ml of dichloromethane followed by immediate dilution to 10 ml in 60:40 acetonitrile/water. The amount of drug or EGCG in the top and bottom phase of this solution was measured using HPLC methods (mobile phase 58:37:5 Acetonitrile:water:methanol. 1 ml per min flow on a c18 column with detection at 232 nm)
Tannic acid: An alternative method was used, termed a water-in oil-in water emulsion. […] This forms a primary emulsion of water droplets in the PLGA solution stabilized by Span. When this emulsion was pipetted into the PVA solution the microspheres formed well. […] The microspheres were a light brown in color indicative of tannic acid encapsulation.
Methods: In these studies, 10 mg of microspheres were suspended in 2 ml of phosphate buffered saline (pH 7.4 10 mM phosphate) in microcentrifuge tubes and tumbled at 8 rpm at 37° C. The tubes were then centrifuged at 12000×g and the supernatants collected for drug analysis by HPLC. 2 ml of fresh PBS was then placed on top of the microspheres which were returned to the 37° C. oven for continued incubation with tumbling.
At the end of the study the residual mass of polymer and drug was dissolved in DCM and drug extracted into 60:40 acetonitrile:water to measure residual drug. The amounts of residual drug were 89% for plga alone (at 31 days), 16% for EGCG and 8% for tannic acid (both at 51 days) as expressed as a % of the original loading.

Another data set has as its system pig skin. The protocol: Various gallate-containing drug formulations were prepared and applied to ex vivo pig skin samples. Fresh pig skin was obtained from a local butcher, processed within three hours and then frozen. For experiments, the skin was slowly thawed, excess fat removed from the base, and cut into 1×2 cm squares. These squares were mounted and clamped on Franz diffusion cells, which kept the tissue moist and isolated and exposed a 6 mm diameter of the upper skin surface for the application of a drug loaded formulation. Skin samples were then frozen and later cryosectioned in 50 μm slices. The drug in the slices was extracted and measured by HPLC or radioactive doping methods. A drug depth profile was then established for each drug.
1. Formulations containing a drug and a gallate. The drugs were dissolved in ethanol at various concentrations along with either EGCG or TA (500 mg/mL). Each solution was pipetted into 6×5 mm diameter aluminum cups (approximately 3 mm in height) by filling and allowing the ethanol to evaporate at 50° C. until all the solution was used up (80 mg per cup).
2. Formulations containing a drug, propylene glycol (“PG”) and a gallate. 300 mg of propylene glycol was mixed with 200 mg of EGCG or TA until dissolved. Various amounts of drug were added to this mixture and dissolved. 80 mg of the resulting viscous solution was weighed into 6×5 mm aluminum cups.
3. Control Formulations. Control formulations were prepared using Glaxal base and Plogel. Glaxal base is a cream used by compounding pharmacists to manufacture topical formulations of drugs. Plogel is an alternative used for dermal formulations. […] Drug was added to a known weight of Glaxal or Plogel and levigated to produce a standard drug dispersion. These formulations were prepared the evening before the experiment. For some drugs, radioactive drug (where available) was also added as a doping additive to facilitate quantitation in tissues.
Eutectics: In some cases, gallate containing compounds and drugs were formulated in eutectic mixtures. These included a 60:40 (% w/w) mixture of menthol with ibuprofen. These agents acted as a carrier for retinoic acid, which was then dissolved in this liquid. The 3-drug eutectic/solution was then blended into the CMC/poloxamer emulsion containing EGCG (2.5%). […] The emulsion was stabilized with poloxamer.
Example 29. Pig skin studies. Aluminum cups containing drug formulations were inverted on top of the pig skin in the Franz diffusion cell so that the formulation contents were in contact with the skin. […]
Analysis. […] The amount of drug in each group of skin sections was then determined using HPLC methods, or by radioactivity counting on a liquid scintillation counter. The amount of drug in each group of skin sections was expressed as μg/g or mg/g of tissue.

Data set [4] in a line: Solubility of drug in EGCG or tannic acid solutions (dried down, PBS or water added, 0.22 micron filtered, HPLC or absorbance).
Experimental: PBS (EGCG) or water (tannic acid) was added and the final solution filtered through a 0.22 micron filter to remove any particulates. The solutions were analyzed for drug concentration using HPLC.
PBS (EGCG) or water (tannic acid) was added and the final solution filtered through a 0.22 micron filter to remove particulates. The solution was then analyzed for drug concentration using absorbance spectroscopy at 450 nm.
PBS (EGCG) or water (tannic acid) was added and the final solution was filtered through a 0.22 micron filter to remove any particulates and the solution was analyzed for drug concentration using HPLC.
PBS (EGCG) or water (tannic acid) was added and the final solution filtered through a 0.22 micron filter to remove any particulates and the solution was analyzed for drug concentration using HPLC.
PBS (EGCG) or water (Tannic acid) was added and the final solution was filtered through a 0.22 um filter to remove any particulates and the solution was analyzed for drug concentration using HPLC.
Method: drug and EGCG or tannic acid were dried down from acetonitrile (or methanol for tannic acid) solutions at various drug to EGCG or tannic acid ratios. PBS (EGCG) or water (Tannic acid pH adjusted to 7) was added and the final solution was filtered through a 0.22 um filter to remove any particulates and the solution was analyzed for drug concentration using HPLC methods.
A short description of data set [5]: Lidocaine release from propylene glycol:gallate pastes into PBS. The data set is classed as physicochemical. The protocol:
For each formulation, 100 mg of paste was placed in the base of a round bottomed 15 mL glass test tube. […] At the start of the release experiment, 10 ml of PBS was added and the tubes left for various time periods, after which all 10 mL of the release media was removed for drug analysis. The residual mass was observed from the top, and the drop in diameter from 8 mm noted as a semi-quantitative assessed of paste pellet degradation. It was not possible to measure the degradation fully quantitatively at that time, as the pellets were fragile and water-swollen. After a few days the pellets became less fragile, and were removed from the tubes and dried on tissue paper before weighing. The drop in weight from 100 mg was then noted as the % degradation and compared with the visual observations.

Values after ≈ are worked out from the molar mass of the structure shown.

For `COc1ccc([C@@H]2CC(=O)c3c(O)cc(O[C@@H]4O[C@H](CO[C@@H]5O[C@@H](C)[C@H](O)[C@@H](O)[C@H]5O)[C@@H](O)[C@H](O)[C@H]4O)cc3O2)cc1O` [hesperedin], in data set [1], the Visual appearance result is recorded as “almost clear”, the “Drug Concentration” value is recorded as 125 microgram/ml and the Particulates present entry is “very”.

Consider `COc1ccc2c(c1)c(CC(=O)O)c(C)n2C(=O)c1ccc(Cl)cc1` [indomethacin], for which, in data set [1], the Visual appearance entry is listed as “clear solution”, the “Drug Concentration” value came to 250 microgram/ml and the Particulates present result is recorded as “no”.

With `C[C@@H]1[C@H](O)[C@@H](C)/C=C/C=C/CC/C=C/C=C/C=C/C=C/C(O[C@H]2O[C@H](C)[C@@H](O)[C@H](N)[C@@H]2O)CC2O[C@](O)(CC(O)C(O)CCC(O)CC(O)CC(O)CC(=O)O[C@H]1C)CC(O)C2C(=O)O` (some centres unmarked) [nystatin], in data set [1], the Visual appearance entry was “clear solution”, the “Drug Concentration” value is 125 microgram/ml and the Particulates present entry was “very”.

For the molecule `O=c1c(O)c(-c2ccc(O)c(O)c2)oc2cc(O)cc(O)c12` [quercetin], in data set [1], the Visual appearance entry is “clear”, the “Drug Concentration” value stood at 250 microgram/ml and the Particulates present entry was “no”.

In the case of `COc1ccc([C@@H]2CC(=O)c3c(O)cc(O)cc3O2)cc1O` [hesperetin], in data set [1], the Visual appearance entry is given as “clear solution”, the “Drug Concentration” value is given as 250 microgram/ml and the Particulates present result is “no”.

With `CC(C)(C)[C@]1(O)CC2OC(=O)CC23C(=O)OC2OC(=O)[C@H](O)C231` (some centres unmarked) [bilobalide], in data set [1], the Visual appearance entry is given as “clear solution”, the “Drug Concentration” value was 250 microgram/ml and the Particulates present result was “no”.

`O=C(OC[C@H]1O[C@@H](OC(=O)c2cc(O)c(O)c(OC(=O)c3cc(O)c(O)c(O)c3)c2)[C@H](OC(=O)c2cc(O)c(O)c(OC(=O)c3cc(O)c(O)c(O)c3)c2)[C@@H](OC(=O)c2cc(O)c(O)c(OC(=O)c3cc(O)c(O)c(O)c3)c2)[C@@H]1OC(=O)c1cc(O)c(O)c(OC(=O)c2cc(O)c(O)c(O)c2)c1)c1cc(O)c(O)c(OC(=O)c2cc(O)c(O)c(O)c2)c1` [tannic acid]: in data set [2], the “solubility in PEG 300 liquid” value is listed as 25 % w/w. The “release of EGCG or Tannic acid from PLGA microspheres” value in data set [3] was about 65%.

On to `CC1=C(/C=C/C(C)=C/C=C/C(C)=C/C(=O)O)C(C)(C)CCC1` [retinoic acid], for which the “drug uptake by pig skin relative to controls” value with pig skin was “higher levels of uptake as compared to the control formulations”.

For `CC1C(=O)OC2C(O)C34C5CC(C(C)(C)C)C36C(OC(=O)C6O)OC4(C(=O)O5)C12O` (centres unmarked) [ginkgolide B], in data set [1], the Visual appearance result is listed as “clear solution”, the “Drug Concentration” value worked out at 250 microgram/ml and the Particulates present result is recorded as “no”.

Regarding `O=C(O[C@@H]1Cc2c(O)cc(O)cc2O[C@@H]1c1cc(O)c(O)c(O)c1)c1cc(O)c(O)c(O)c1` [EGCG, epi gallo catechin gallate], in data set [2], the “solubility in PEG 300 liquid” value is 25 % w/w and the “solubility in propylene glycol” value is reported as “higher than 50 % w/w”. Moreover, in data set [3], the “release of EGCG or Tannic acid from PLGA microspheres” value is listed as “approximately 45%”.

`CO[C@H]1C[C@@H]2CC[C@@H](C)[C@@](O)(O2)C(=O)C(=O)N2CCCC[C@H]2C(=O)O[C@H]([C@H](C)C[C@@H]2CC[C@@H](O)[C@H](OC)C2)CC(=O)[C@H](C)/C=C(\C)[C@@H](O)[C@@H](OC)C(=O)[C@H](C)C[C@H](C)/C=C/C=C/C=C/1C` [rapamycin]: the solubility in data set [4] (EGCG solution (200 mg/ml) in PBS, aqueous with cosolvent or surfactant or cyclodextrin, thermodynamic from solid, drug concentration solubilised at maximum EGCG concentration, EGCG 200 mg per ml, PBS) was about 300 µg/mL (≈ 328 µM); in data set [4] (tannic acid solution (500 mg/ml) in water, aqueous with cosolvent or surfactant or cyclodextrin, thermodynamic from solid, drug concentration solubilised at maximum tannic acid concentration, tannic acid 500 mg/ml, water), about 1500 µg/mL (≈ 1640 µM); in data set [4] (water, free solubility in water, no EGCG or tannic acid) it was 2 to 3 µg/mL (≈ 2.19 to 3.28 µM). Besides, the “effect of temperature on solubility” value in data set [4] (EGCG solutions) was “little effect of temperature”; in data set [4] (tannic acid solutions, 37° C. or 50° C. compared to 23° C.), “no effect of temperature”. In addition, in data set [4] (EGCG solutions, 24 hours), the “stability of EGCG solutions of the drug” value was “stable for 24 hours”. Besides, the “stability of tannic acid solutions of the drug” value in data set [4] (tannic acid solutions, 24 hours) is on record as “stable for 24 hours”.

In the case of `CC1=CC(=O)c2c(O)cccc2C1=O` [plumbagin], in data set [1], the Visual appearance entry is “clear”, the “Drug Concentration” value is listed as 250 microgram/ml and the Particulates present entry was “no”.

For `CC[C@@]1(O)C(=O)OCc2c1cc1n(c2=O)Cc2cc3ccccc3nc2-1` [camptothecin], in data set [1], the Visual appearance result was “clear”, the “Drug Concentration” value is recorded as 50 microgram/ml and the Particulates present entry is on record as “no”.

In the case of `CCN(CC)CC(=O)Nc1c(C)cccc1C` [lidocaine], the “period of drug release” value in data set [5] (EGCG:propylene glycol pastes, 20% drug loading) is 2-4 weeks; in data set [5] (tannic acid:propylene glycol pastes, 5% drug loading), about 7 days; in data set [5] (tannic acid:propylene glycol pastes, 20% drug loading), 4-5 weeks. For the same molecule, the drug release in data set [5] (all EGCG:propylene glycol pastes, 5% drug loading, in approximately 2 days) was about 100%.
